From ChEMBL document CHEMBL4507268 (2021)

Assays:
[1] = target: Mitotic checkpoint serine/threonine-protein kinase BUB1 (Homo sapiens) (UniProt O43683); conditions: Compound concentration 1000.0 nM
[2] = target: Cyclin-dependent kinase 4 (Homo sapiens) (UniProt P11802); conditions: Compound concentration 1000.0 nM
[3] = target: T1, Serine/threonine-protein kinase Chk1 (Homo sapiens) (UniProt O14757); conditions: Compound concentration 1000.0 nM
T1 sequence (whole entry): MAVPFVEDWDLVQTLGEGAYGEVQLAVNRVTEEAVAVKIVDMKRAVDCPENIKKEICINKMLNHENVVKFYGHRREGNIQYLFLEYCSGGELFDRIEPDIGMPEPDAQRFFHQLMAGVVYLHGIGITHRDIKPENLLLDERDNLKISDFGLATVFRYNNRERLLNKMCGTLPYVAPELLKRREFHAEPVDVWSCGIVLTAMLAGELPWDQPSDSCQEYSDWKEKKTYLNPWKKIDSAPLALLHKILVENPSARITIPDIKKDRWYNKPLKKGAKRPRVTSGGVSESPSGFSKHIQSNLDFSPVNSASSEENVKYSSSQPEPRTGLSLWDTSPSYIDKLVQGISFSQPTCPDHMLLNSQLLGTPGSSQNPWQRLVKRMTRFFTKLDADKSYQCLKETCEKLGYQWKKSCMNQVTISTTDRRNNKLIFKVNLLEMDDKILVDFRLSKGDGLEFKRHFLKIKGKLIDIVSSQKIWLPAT

[4] = target: Casein kinase I isoform gamma-1 (Homo sapiens) (UniProt Q9HCP0); conditions: Compound concentration 1000.0 nM
Chain of Casein kinase I isoform gamma-1 (Homo sapiens) (Q9HCP0 whole entry, looked up, canonical isoform): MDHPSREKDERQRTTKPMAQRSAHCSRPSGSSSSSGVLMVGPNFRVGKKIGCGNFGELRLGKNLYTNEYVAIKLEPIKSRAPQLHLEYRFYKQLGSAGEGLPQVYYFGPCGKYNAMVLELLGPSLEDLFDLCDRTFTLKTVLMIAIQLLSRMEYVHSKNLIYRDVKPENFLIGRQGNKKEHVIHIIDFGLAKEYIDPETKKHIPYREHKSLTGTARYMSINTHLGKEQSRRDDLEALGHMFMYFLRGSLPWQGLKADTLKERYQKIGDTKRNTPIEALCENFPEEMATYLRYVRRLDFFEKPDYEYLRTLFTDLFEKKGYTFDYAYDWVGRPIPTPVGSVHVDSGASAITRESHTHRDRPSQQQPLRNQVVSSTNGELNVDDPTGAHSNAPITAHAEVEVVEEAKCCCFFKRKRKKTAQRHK

[5] = target: Ephrin type-A receptor 5 (Homo sapiens) (UniProt P54756); conditions: Compound concentration 1000.0 nM
Chain of Ephrin type-A receptor 5 (Homo sapiens) (P54756 whole entry): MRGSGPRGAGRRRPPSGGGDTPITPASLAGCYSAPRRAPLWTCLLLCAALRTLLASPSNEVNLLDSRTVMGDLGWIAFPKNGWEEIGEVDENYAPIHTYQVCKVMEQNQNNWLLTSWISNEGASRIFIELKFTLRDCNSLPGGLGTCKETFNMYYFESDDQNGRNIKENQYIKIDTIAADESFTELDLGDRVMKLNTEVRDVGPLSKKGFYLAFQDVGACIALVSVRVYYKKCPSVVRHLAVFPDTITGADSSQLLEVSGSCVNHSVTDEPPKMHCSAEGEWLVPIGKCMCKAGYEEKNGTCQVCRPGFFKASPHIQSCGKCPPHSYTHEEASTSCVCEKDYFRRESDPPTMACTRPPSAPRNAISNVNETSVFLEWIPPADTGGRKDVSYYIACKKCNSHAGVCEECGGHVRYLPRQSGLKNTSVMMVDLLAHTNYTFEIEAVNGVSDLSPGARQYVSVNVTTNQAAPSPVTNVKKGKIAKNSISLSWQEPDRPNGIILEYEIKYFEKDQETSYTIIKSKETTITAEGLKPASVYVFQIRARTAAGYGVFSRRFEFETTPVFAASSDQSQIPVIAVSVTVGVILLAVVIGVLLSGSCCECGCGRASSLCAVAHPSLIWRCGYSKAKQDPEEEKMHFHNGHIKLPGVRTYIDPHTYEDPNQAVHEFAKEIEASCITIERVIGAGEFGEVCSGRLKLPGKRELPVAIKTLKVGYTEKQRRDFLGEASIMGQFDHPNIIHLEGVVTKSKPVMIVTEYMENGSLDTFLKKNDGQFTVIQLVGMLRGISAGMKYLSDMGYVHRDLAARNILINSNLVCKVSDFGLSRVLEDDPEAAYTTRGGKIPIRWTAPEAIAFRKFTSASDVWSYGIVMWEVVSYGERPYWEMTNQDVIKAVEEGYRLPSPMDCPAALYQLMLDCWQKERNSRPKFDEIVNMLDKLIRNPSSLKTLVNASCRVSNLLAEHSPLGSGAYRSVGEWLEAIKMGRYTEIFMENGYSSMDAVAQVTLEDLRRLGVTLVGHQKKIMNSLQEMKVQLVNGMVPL

[6] = target: Mitogen-activated protein kinase 15 (Homo sapiens) (UniProt Q8TD08); conditions: Compound concentration 1000.0 nM
[7] = target: Serine/threonine-protein kinase MRCK alpha (Homo sapiens) (UniProt Q5VT25); conditions: Compound concentration 1000.0 nM
[8] = target: T2, Serine/threonine-protein kinase 3 (Homo sapiens) (UniProt Q13188); conditions: Compound concentration 1000.0 nM
T2 sequence (whole entry): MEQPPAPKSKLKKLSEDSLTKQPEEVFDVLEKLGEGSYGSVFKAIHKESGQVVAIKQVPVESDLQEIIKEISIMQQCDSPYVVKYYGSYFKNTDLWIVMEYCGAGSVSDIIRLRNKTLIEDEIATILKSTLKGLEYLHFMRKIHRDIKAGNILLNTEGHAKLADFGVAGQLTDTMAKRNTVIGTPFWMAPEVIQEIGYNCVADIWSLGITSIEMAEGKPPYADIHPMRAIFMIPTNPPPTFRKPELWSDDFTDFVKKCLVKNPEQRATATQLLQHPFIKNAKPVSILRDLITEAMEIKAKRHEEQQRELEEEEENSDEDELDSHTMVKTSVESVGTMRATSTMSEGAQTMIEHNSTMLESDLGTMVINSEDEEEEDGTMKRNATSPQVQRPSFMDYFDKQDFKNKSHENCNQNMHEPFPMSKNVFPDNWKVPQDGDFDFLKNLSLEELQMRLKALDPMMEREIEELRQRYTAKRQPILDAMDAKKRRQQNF

[9] = target: Myosin light chain kinase, smooth muscle (Homo sapiens) (UniProt Q15746); conditions: Compound concentration 1000.0 nM
[10] = target: Myosin light chain kinase 2, skeletal/cardiac muscle (Homo sapiens) (UniProt Q9H1R3); conditions: Compound concentration 1000.0 nM
Chain of Myosin light chain kinase 2, skeletal/cardiac muscle (Homo sapiens) (Q9H1R3 whole entry): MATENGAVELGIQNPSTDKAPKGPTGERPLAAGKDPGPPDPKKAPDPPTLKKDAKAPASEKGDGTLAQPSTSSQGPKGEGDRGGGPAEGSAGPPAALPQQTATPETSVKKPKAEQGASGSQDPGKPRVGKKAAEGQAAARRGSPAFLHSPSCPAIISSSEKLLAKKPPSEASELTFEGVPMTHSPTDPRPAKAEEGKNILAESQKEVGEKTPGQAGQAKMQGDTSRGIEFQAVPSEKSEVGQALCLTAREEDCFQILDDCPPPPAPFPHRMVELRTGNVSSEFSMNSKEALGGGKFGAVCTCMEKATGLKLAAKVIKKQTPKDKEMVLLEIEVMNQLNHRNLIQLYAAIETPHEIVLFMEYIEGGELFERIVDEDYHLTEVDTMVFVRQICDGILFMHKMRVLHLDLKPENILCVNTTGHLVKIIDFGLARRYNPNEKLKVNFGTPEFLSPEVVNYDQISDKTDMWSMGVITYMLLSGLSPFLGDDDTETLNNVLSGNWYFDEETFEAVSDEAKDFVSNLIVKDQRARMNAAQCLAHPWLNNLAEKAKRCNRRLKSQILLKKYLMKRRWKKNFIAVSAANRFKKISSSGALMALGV

[11] = target: Serine/threonine-protein kinase Nek7 (Homo sapiens) (UniProt Q8TDX7); conditions: Compound concentration 1000.0 nM
[12] = target: Phosphatidylinositol 4,5-bisphosphate 3-kinase catalytic subunit alpha isoform (Homo sapiens) (UniProt P42336); conditions: Compound concentration 1000.0 nM
Chain of Phosphatidylinositol 4,5-bisphosphate 3-kinase catalytic subunit alpha isoform (Homo sapiens) (P42336 whole entry, canonical isoform): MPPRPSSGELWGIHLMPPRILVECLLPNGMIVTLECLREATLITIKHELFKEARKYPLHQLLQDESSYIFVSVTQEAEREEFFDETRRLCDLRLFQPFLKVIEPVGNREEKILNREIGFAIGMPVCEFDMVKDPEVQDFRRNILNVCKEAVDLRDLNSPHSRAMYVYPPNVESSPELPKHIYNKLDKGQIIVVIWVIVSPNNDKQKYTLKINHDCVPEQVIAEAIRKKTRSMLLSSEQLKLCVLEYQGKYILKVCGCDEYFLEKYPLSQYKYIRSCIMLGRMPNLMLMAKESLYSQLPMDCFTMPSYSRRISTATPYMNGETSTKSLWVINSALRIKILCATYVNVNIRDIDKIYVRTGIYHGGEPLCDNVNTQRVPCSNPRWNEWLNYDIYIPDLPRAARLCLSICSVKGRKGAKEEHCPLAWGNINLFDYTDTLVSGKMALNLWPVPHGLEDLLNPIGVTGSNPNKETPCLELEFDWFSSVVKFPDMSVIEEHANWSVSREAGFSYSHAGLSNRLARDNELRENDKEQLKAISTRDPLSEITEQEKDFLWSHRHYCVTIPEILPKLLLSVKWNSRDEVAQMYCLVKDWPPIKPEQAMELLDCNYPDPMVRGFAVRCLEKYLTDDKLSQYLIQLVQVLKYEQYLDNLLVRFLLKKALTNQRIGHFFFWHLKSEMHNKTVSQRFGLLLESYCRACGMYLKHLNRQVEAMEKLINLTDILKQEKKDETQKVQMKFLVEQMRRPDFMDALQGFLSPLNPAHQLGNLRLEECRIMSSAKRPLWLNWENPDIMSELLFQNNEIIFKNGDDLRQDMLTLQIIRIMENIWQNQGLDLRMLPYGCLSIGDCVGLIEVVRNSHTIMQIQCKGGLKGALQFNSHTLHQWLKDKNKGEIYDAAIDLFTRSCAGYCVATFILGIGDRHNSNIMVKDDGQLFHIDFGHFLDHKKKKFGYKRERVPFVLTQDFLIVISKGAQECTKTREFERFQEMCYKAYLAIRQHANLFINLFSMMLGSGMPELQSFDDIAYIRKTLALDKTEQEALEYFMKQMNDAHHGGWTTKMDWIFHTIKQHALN

[13] = target: Proto-oncogene tyrosine-protein kinase ROS (Homo sapiens) (UniProt P08922); conditions: Compound concentration 1000.0 nM
[14] = target: Tyrosine-protein kinase receptor Tie-1 (Homo sapiens) (UniProt P35590); conditions: Compound concentration 1000.0 nM
Chain of Tyrosine-protein kinase receptor Tie-1 (Homo sapiens) (P35590 whole entry): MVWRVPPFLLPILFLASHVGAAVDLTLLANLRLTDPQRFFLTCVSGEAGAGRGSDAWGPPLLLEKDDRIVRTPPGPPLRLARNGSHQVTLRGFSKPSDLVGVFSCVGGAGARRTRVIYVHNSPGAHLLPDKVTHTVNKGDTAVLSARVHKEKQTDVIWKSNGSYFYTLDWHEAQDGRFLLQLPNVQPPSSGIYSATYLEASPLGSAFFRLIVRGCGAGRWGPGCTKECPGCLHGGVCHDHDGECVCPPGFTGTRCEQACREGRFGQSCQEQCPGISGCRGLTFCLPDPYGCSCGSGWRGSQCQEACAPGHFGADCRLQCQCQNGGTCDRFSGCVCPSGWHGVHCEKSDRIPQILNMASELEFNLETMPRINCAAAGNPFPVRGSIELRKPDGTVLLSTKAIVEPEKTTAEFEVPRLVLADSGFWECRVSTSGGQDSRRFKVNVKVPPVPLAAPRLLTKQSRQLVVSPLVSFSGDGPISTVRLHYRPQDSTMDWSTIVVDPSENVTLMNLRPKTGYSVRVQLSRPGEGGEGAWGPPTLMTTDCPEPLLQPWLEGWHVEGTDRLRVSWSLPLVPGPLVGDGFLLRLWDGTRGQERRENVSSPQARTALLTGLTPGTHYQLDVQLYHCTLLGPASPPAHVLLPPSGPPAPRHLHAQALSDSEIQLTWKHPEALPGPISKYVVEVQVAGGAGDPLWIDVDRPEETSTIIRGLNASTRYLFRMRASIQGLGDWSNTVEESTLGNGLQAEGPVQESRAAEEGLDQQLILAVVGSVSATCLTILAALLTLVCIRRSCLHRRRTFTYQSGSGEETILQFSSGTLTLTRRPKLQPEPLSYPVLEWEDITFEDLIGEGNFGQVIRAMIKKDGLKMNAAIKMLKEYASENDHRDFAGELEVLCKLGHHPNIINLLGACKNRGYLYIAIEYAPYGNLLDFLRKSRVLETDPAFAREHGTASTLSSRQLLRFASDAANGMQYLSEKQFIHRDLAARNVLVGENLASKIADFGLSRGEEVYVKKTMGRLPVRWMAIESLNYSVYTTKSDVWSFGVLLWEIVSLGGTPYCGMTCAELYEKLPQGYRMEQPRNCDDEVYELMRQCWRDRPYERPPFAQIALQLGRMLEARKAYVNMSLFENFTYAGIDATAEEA

[15] = target: Mitogen-activated protein kinase kinase kinase 19 (Homo sapiens) (UniProt Q56UN5); conditions: Compound concentration 1000.0 nM
[16] = target: T3, Tyrosine-protein kinase ZAP-70 (Homo sapiens) (UniProt P43403); conditions: Compound concentration 1000.0 nM
T3 sequence (whole entry): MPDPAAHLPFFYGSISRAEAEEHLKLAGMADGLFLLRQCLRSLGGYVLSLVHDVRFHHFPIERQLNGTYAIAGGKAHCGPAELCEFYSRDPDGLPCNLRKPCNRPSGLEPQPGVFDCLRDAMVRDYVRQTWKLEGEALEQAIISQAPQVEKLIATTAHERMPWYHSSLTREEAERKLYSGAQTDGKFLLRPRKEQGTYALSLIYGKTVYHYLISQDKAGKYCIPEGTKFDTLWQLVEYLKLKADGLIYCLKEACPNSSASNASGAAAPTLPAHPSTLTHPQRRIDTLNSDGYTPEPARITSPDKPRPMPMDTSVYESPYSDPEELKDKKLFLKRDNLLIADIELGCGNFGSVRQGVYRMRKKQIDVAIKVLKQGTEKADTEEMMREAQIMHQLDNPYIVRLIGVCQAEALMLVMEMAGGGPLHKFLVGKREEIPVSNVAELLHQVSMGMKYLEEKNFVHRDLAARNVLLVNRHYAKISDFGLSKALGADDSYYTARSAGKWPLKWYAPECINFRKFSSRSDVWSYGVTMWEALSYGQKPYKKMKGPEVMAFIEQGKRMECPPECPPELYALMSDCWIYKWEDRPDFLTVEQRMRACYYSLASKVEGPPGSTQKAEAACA

[17] = target: 5-hydroxytryptamine receptor 2A (Homo sapiens) (UniProt P28223); conditions: Compound concentration 10.0 uM
[18] = target: 5-hydroxytryptamine receptor 6 (Homo sapiens) (UniProt P50406); conditions: Compound concentration 10.0 uM
Chain of 5-hydroxytryptamine receptor 6 (Homo sapiens) (P50406 whole entry): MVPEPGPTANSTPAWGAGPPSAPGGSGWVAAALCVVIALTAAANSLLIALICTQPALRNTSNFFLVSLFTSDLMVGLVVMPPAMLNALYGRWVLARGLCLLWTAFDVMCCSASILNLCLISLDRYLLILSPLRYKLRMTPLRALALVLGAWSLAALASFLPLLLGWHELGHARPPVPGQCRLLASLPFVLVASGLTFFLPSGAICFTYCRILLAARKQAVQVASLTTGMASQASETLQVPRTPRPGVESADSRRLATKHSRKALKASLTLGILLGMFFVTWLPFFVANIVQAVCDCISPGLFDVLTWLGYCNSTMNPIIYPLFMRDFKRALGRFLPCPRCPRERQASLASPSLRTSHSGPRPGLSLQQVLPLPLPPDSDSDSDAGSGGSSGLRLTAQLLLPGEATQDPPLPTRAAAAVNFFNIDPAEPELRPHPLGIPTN

Chain of Cyclin-dependent kinase 4 (Homo sapiens) (P11802 whole entry): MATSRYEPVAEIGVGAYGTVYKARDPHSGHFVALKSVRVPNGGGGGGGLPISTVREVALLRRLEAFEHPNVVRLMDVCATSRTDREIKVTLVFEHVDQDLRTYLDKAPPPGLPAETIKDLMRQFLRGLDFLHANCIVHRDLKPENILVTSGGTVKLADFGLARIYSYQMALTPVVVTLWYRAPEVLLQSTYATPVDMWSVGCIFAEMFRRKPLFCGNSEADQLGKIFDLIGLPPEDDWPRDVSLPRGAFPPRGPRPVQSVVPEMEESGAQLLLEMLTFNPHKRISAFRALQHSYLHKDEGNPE

Cc1nc(C2CCN(C(=O)c3ccc(OC(F)(F)F)cc3N)CC2)c2ncc(N3CCN(C)CC3)cc2n1 [BAY-693]
inactive: residual activity [1] 96% | residual activity [2] 100% | residual activity [3] 100% | residual activity [4] 100% | residual activity [5] 99% | residual activity [6] 100% | residual activity [7] 99% | residual activity [8] 79% | residual activity [9] 100% | residual activity [10] 87% | residual activity [11] 100% | residual activity [12] 81% | residual activity [13] 92% | residual activity [14] 100% | residual activity [15] 79% | residual activity [16] 100% | inhibition [17] 4.68% | inhibition [18] -1.38%

CN1CCN(c2cnc3c(C4CCN(C(=O)c5ccc(OC(F)(F)F)cc5N)CC4)ncnc3c2)CC1 [BAY-885]
inactive: residual activity [1] 93% | residual activity [2] 100% | residual activity [3] 100% | residual activity [4] 100% | residual activity [5] 91% | residual activity [6] 100% | residual activity [7] 100% | residual activity [8] 82% | residual activity [9] 88% | residual activity [10] 85% | residual activity [11] 100% | residual activity [12] 95% | residual activity [13] 100% | residual activity [14] 80% | residual activity [15] 83% | residual activity [16] 100% | inhibition [17] 4.33% | inhibition [18] -4.69%
